Source: EPA's CvTdb concentration-time database (doi:10.1093/toxsci/kfy020)

Tests used:
Test in all cases: concentration in plasma after dosing
rat [1] = settings: male, Sprague-Dawley
rat [2] = settings: dosed: Propamocarb hydrochloride, 1.0000000000 mg/kg, iv, male, Sprague-Dawley
rat [3] = settings: dosed: Propamocarb hydrochloride, 5.0000000000 mg/kg, oral, male, Sprague-Dawley
rat [4] = settings: dosed: Propamocarb hydrochloride, 1.0000000000 mg/kg, iv, male, Sprague-Dawley; remark: listed apart in the source
rat [5] = settings: dosed: Propamocarb hydrochloride, 5.0000000000 mg/kg, oral, male, Sprague-Dawley; remark: listed apart in the source
rat [6] = settings: dosed: Propamocarb hydrochloride, 5.0000000000 mg/kg, oral, male, Sprague-Dawley; remark: listed apart in the source
rat [7] = settings: dosed: Resmethrin, 4.0000000000 mg/kg, oral, male, Sprague-Dawley
rat [8] = settings: dosed: Resmethrin, 4.0000000000 mg/kg, oral, male, Sprague-Dawley; remark: listed apart in the source
rat [9] = settings: dosed: Resmethrin, 0.8000000000 mg/kg, iv, male, Sprague-Dawley
rat [10] = settings: dosed: Resmethrin, 0.8000000000 mg/kg, iv, male, Sprague-Dawley; remark: listed apart in the source
rat [11] = settings: dosed: Resmethrin, 4.0000000000 mg/kg, oral, male, Sprague-Dawley; remark: listed apart in the source
rat [12] = settings: dosed: S-Bioallethrin, 0.8000000000 mg/kg, iv, male, Sprague-Dawley
rat [13] = settings: dosed: S-Bioallethrin, 4.0000000000 mg/kg, oral, male, Sprague-Dawley
rat [14] = settings: dosed: S-Bioallethrin, 0.8000000000 mg/kg, iv, male, Sprague-Dawley; remark: listed apart in the source
rat [15] = settings: dosed: S-Bioallethrin, 0.8000000000 mg/kg, iv, male, Sprague-Dawley; remark: listed apart in the source
rat [16] = settings: dosed: Simazine, 0.4000000000 mg/kg, iv, male, Sprague-Dawley
rat [17] = settings: dosed: Simazine, 0.4000000000 mg/kg, iv, male, Sprague-Dawley; remark: listed apart in the source
rat [18] = settings: dosed: Simazine, 2.0000000000 mg/kg, oral, male, Sprague-Dawley
rat [19] = settings: dosed: Simazine, 2.0000000000 mg/kg, oral, male, Sprague-Dawley; remark: listed apart in the source
rat [20] = settings: dosed: Simazine, 0.4000000000 mg/kg, iv, male, Sprague-Dawley; remark: listed apart in the source
rat [21] = settings: dosed: Simazine, 2.0000000000 mg/kg, oral, male, Sprague-Dawley; remark: listed apart in the source
rat [22] = settings: dosed: Triclosan, 1.0000000000 mg/kg, iv, male, Sprague-Dawley
rat [23] = settings: dosed: Triclosan, 1.0000000000 mg/kg, iv, male, Sprague-Dawley; remark: listed apart in the source
rat [24] = settings: dosed: Triclosan, 1.0000000000 mg/kg, iv, male, Sprague-Dawley; remark: listed apart in the source
rat [25] = settings: dosed: Triclosan, 1.0000000000 mg/kg, iv, male, Sprague-Dawley; remark: listed apart in the source
rat [26] = settings: dosed: Triclosan, 1.0000000000 mg/kg, iv, male, Sprague-Dawley; remark: listed apart in the source

CCCOC(=O)NCCCN(C)C.Cl [Propamocarb hydrochloride]
concentration in plasma [ng/mL], rat [1], dosed: Propamocarb hydrochloride
Settings	0.25 h	0.5 h	1 h	2 h	5 min
1.0000000000 mg/kg, iv	57.8	26.2	9.6	1	134
5.0000000000 mg/kg, oral	8.1	4.9	1.6	–	–

concentration in plasma [ng/mL]
Settings	rat [2]	rat [3]	rat [4]	rat [5]	rat [6]
0.25 h	62.1	2.1	69.3	3.5	1.1
0.5 h	25.5	1.5	35.3	1.7	0.7
1 h	8.7	0.43	11	0.4	0.1
2 h	0.5	–	1.7	–	–
5 min	103	–	108	–	–

CC(C)=CC1C(C(=O)OCc2coc(Cc3ccccc3)c2)C1(C)C (configuration not stated) [Resmethrin]
concentration in plasma [ng/mL], rat [1], dosed: Resmethrin
Settings	0.25 h	0.5 h	1 h	2 h	4 h	5 min	8 h	10 min
0.8000000000 mg/kg, iv	–	13.9	1.6	8.1	–	72.9	–	30.4
4.0000000000 mg/kg, oral	12.6	37.2	32.8	13.5	13.7	–	6.1	–

concentration in plasma [ng/mL]
Settings	0.25 h	0.5 h	1 h	2 h	4 h	5 min	8 h	10 min	12 h
rat [7]	13.4	11.8	44.1	12.4	5.6	–	4	–	–
rat [8]	7	10.7	39	12.8	2.3	–	4.7	–	1.8
rat [9]	–	12.1	0.7	5.6	–	52.5	–	20.6	–
rat [10]	–	9.1	4.1	1	–	52.7	–	25	–
rat [11]	17.4	15.8	17.7	10.6	4.2	–	4.6	–	–

C=CCC1=C(C)[C@@H](OC(=O)[C@@H]2[C@@H](C=C(C)C)C2(C)C)CC1=O [S-Bioallethrin]
concentration in plasma [ng/mL], rat [1], dosed: S-Bioallethrin
Settings	0.5 h	1 h	2 h	4 h	5 min
0.8000000000 mg/kg, iv	2.7	3	3.4	1.6	19.2
4.0000000000 mg/kg, oral	1.6	6	1.2	–	–

concentration in plasma [ng/mL]
Settings	0.25 h	0.5 h	1 h	2 h	4 h	5 min	8 h	10 min
rat [12]	–	24.5	5.2	6.9	2.9	–	1.5	76.7
rat [13]	2.5	2.2	4.9	–	–	–	–	–
rat [14]	–	31.3	11	2.5	1.6	–	–	30.2
rat [15]	–	13.1	–	6.7	1.9	60.4	–	43.5

CCNc1nc(Cl)nc(NCC)n1 [Simazine]
concentration in plasma [ng/mL], rat [1], dosed: Simazine
Settings	0.25 h	0.5 h	1 h	5 min	10 min
0.4000000000 mg/kg, iv	–	43	3.7	91.6	101
2.0000000000 mg/kg, oral	6.9	2.4	–	–	–

concentration in plasma [ng/mL]
Settings	0.25 h	0.5 h	1 h	2 h	4 h	5 min	10 min
rat [16]	–	46.6	9.7	1.1	–	52	148
rat [17]	–	34.8	5.3	–	–	127	95.5
rat [18]	6.9	5	1	4.6	1	–	–
rat [19]	10.5	3.7	1.3	2.6	1.5	–	–
rat [20]	–	23.2	4.5	–	–	63.7	60.4
rat [21]	68.5	23.2	5	1.2	–	–	–

Oc1cc(Cl)ccc1Oc1ccc(Cl)cc1Cl [Triclosan]
concentration in plasma [ng/mL]
Settings	0.5 h	1 h	2 h	5 min	10 min	72 h
rat [22]	23.9	6.6	–	72.7	36.7	–
rat [23]	5.7	10.4	5	1	2.1	2.9
rat [24]	200	–	–	903	367	–
rat [25]	102	24.9	–	469	374	–
rat [26]	24.8	6.4	–	270	129	6.2

rat [1], dosed: Triclosan, 1.0000000000 mg/kg, iv
Settings	concentration in plasma [ng/mL]
0.5 h	39.6
5 min	474
10 min	211
